Test results taken from the supplement of paper PMC9663587.

Legend:
[1] = compound: CC(=O)c1c(C)c2cnc(Nc3ccc(N4CCNCC4)cn3)nc2n(C2CCCC2)c1=O; test: increase in dead-cell fraction, 72 h; higher = more death;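 further: breast cancer cell lines in 384-well plates, stained with Hoechst plus LIVE/DEAD far red dye and imaged, cells above an LDR intensity threshold counted dead, Hoechst-negative corpses included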
[2] = compound: CCN1CCN(Cc2ccc(Nc3ncc(F)c(-c4cc(F)c5nc(C)n(C(C)C)c5c4)n3)nc2)CC1; test: as above
[3] = compound: T1, CN(C)C(=O)c1cc2cnc(Nc3ccc(N4CCNCC4)cn3)nc2n1C1CCCC1 [LEE011/Ribociclib]; test: as above
[4] = compound: T2, CN1CC[C@H](c2c(O)cc(O)c3c(=O)cc(-c4ccccc4Cl)oc23)[C@H](O)C1 [Flavopiridol]; test: as above
[5] = compound: CC(=O)c1c(C)c2cnc(Nc3ccc(N4CCN(CCOCCOCCOCCNC(=O)COc5cccc6c5C(=O)N(C5CCC(=O)NC5=O)C6=O)CC4)cn3)nc2n(C2CCCC2)c1=O [BSJ-03-123]; test: GR value, 72 h; higher = faster growth (1 = untreated, <0 = killing);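 further: breast cancer and non-malignant breast epithelial lines, nine half-log doses, viable cells counted by Hoechst and LIVE/DEAD dye imaging versus time-zero plates and DMSO controls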
[6] = compound: CC(=O)c1c(C)c2cnc(Nc3ccc(N4CCNCC4)cn3)nc2n(C2CCCC2)c1=O; test: as above
[7] = compound: CCN1CCN(Cc2ccc(Nc3ncc(F)c(-c4cc(F)c5nc(C)n(C(C)C)c5c4)n3)nc2)CC1; test: as above
[8] = compound: CCOc1cc2ncc(C#N)c(Nc3ccc(OCc4ccccn4)c(Cl)c3)c2cc1NC(=O)/C=C/CN(C)C [Neratinib/HKI272]; test: as above
[9] = compound: CCc1cnn2c(NCc3ccc[n+]([O-])c3)cc(N3CCCC[C@H]3CCO)nc12; test: as above
[10] = compound: T1, LEE011/Ribociclib; test: as above
[11] = compound: CN(C)C/C=C/C(=O)Nc1ccc(C(=O)Nc2cccc(Nc3ncc(Cl)c(-c4c[nH]c5ccccc45)n3)c2)cc1 [THZ1]; test: as above
[12] = compound: T2, Flavopiridol; test: as above

What does the source list for UACC812?
increase in dead-cell fraction ([1]; 0.0003162 µM): -0.0049; increase in dead-cell fraction ([1]; 0.001 µM): 0.0002; increase in dead-cell fraction ([1]; 0.003162 µM): -0.0042; increase in dead-cell fraction ([1]; 0.01 µM): 0.005; increase in dead-cell fraction ([1]; 0.03162 µM): 0.0019; increase in dead-cell fraction ([1]; 0.1 µM): 0.0099; increase in dead-cell fraction ([1]; 0.3162 µM): 0.0073; increase in dead-cell fraction ([1]; 1 µM): 0.0136; increase in dead-cell fraction ([1]; 3.162 µM): 0.0146; increase in dead-cell fraction ([2]; 0.001 µM): -0.0019; increase in dead-cell fraction ([2]; 0.003162 µM): 0.0028; increase in dead-cell fraction ([2]; 0.01 µM): 0.0044; increase in dead-cell fraction ([2]; 0.03162 µM): 0.0186; increase in dead-cell fraction ([2]; 0.1 µM): 0.0202; increase in dead-cell fraction ([2]; 0.3162 µM): 0.0231; increase in dead-cell fraction ([2]; 1 µM): 0.0272; increase in dead-cell fraction ([2]; 3.162 µM): 0.0144; increase in dead-cell fraction ([2]; 10 µM): 0.073; increase in dead-cell fraction ([3]; 0.001 µM): 0.0064; increase in dead-cell fraction ([3]; 0.003162 µM): 0.0022; increase in dead-cell fraction ([3]; 0.01 µM): 0.0036; increase in dead-cell fraction ([3]; 0.03162 µM): 0.0049; increase in dead-cell fraction ([3]; 0.1 µM): 0.0102; increase in dead-cell fraction ([3]; 0.3162 µM): 0.0156; increase in dead-cell fraction ([3]; 1 µM): 0.0075; increase in dead-cell fraction ([3]; 3.162 µM): 0.017; increase in dead-cell fraction ([3]; 10 µM): 0.0125; increase in dead-cell fraction ([4]; 0.0001 µM): 0.0015; increase in dead-cell fraction ([4]; 0.0003162 µM): -0.0016; increase in dead-cell fraction ([4]; 0.001 µM): 0.0074; increase in dead-cell fraction ([4]; 0.003162 µM): 0.0022; increase in dead-cell fraction ([4]; 0.01 µM): -0.0031; increase in dead-cell fraction ([4]; 0.03162 µM): -0.0033; increase in dead-cell fraction ([4]; 0.1 µM): 0.0023; increase in dead-cell fraction ([4]; 0.3162 µM): 0.0692; increase in dead-cell fraction ([4]; 1 µM): 0.403; GR value ([5]; 0.001 µM): 0.833 GR; GR value ([5]; 0.003162 µM): 0.862 GR; GR value ([5]; 0.01 µM): 0.699 GR; GR value ([5]; 0.03162 µM): 0.711 GR; GR value ([5]; 0.1 µM): 0.74 GR; GR value ([5]; 0.3162 µM): 0.887 GR; GR value ([5]; 1 µM): 0.48 GR; GR value ([5]; 3.162 µM): 0.408 GR; GR value ([5]; 10 µM): -0.328 GR; GR value ([6]; 0.0003162 µM): 1.11 GR; GR value ([6]; 0.001 µM): 0.781 GR; GR value ([6]; 0.003162 µM): 0.839 GR; GR value ([6]; 0.01 µM): 0.637 GR; GR value ([6]; 0.03162 µM): 0.409 GR; GR value ([6]; 0.1 µM): 0.173 GR; GR value ([6]; 0.3162 µM): 0.0192 GR; GR value ([6]; 1 µM): -0.127 GR; GR value ([6]; 3.162 µM): -0.162 GR; GR value ([7]; 0.001 µM): 0.849 GR; GR value ([7]; 0.003162 µM): 0.562 GR; GR value ([7]; 0.01 µM): 0.349 GR; GR value ([7]; 0.03162 µM): -0.073 GR; GR value ([7]; 0.1 µM): -0.212 GR; GR value ([7]; 0.3162 µM): -0.252 GR; GR value ([7]; 1 µM): -0.319 GR; GR value ([7]; 3.162 µM): -0.407 GR; GR value ([7]; 10 µM): -0.565 GR; GR value ([8]; 0.0003162 µM): 1.02 GR; GR value ([8]; 0.001 µM): 0.785 GR; GR value ([8]; 0.003162 µM): 0.449 GR; GR value ([8]; 0.01 µM): 0.258 GR; GR value ([8]; 0.03162 µM): -0.145 GR; GR value ([8]; 0.1 µM): -0.384 GR; GR value ([8]; 0.3162 µM): -0.493 GR; GR value ([8]; 1 µM): -0.574 GR; GR value ([8]; 3.162 µM): -0.747 GR; GR value ([9]; 0.0001 µM): 1.17 GR; GR value ([9]; 0.0003162 µM): 1.22 GR; GR value ([9]; 0.001 µM): 1.63 GR; GR value ([9]; 0.003162 µM): 1.63 GR; GR value ([9]; 0.01 µM): 1.28 GR; GR value ([9]; 0.03162 µM): -0.347 GR; GR value ([9]; 0.1 µM): -0.932 GR; GR value ([9]; 0.3162 µM): -0.948 GR; GR value ([9]; 1 µM): -0.949 GR; GR value ([10]; 0.001 µM): 0.753 GR; GR value ([10]; 0.003162 µM): 0.55 GR; GR value ([10]; 0.01 µM): 0.569 GR; GR value ([10]; 0.03162 µM): 0.333 GR; GR value ([10]; 0.1 µM): 0.309 GR; GR value ([10]; 0.3162 µM): 0.218 GR; GR value ([10]; 1 µM): 0.148 GR; GR value ([10]; 3.162 µM): 0.171 GR; GR value ([10]; 10 µM): 0.0704 GR; GR value ([11]; 0.0001 µM): 1.23 GR; GR value ([11]; 0.0003162 µM): 1.05 GR; GR value ([11]; 0.001 µM): 1.18 GR; GR value ([11]; 0.003162 µM): 0.811 GR; GR value ([11]; 0.01 µM): 1.1 GR; GR value ([11]; 0.03162 µM): 0.842 GR; GR value ([11]; 0.1 µM): 1.1 GR; GR value ([11]; 0.3162 µM): 1.01 GR; GR value ([11]; 1 µM): -0.293 GR; GR value ([12]; 0.0001 µM): 0.797 GR; GR value ([12]; 0.0003162 µM): 1.15 GR; GR value ([12]; 0.001 µM): 0.734 GR; GR value ([12]; 0.003162 µM): 0.914 GR; GR value ([12]; 0.01 µM): 0.878 GR; GR value ([12]; 0.03162 µM): 0.785 GR; GR value ([12]; 0.1 µM): 0.457 GR; GR value ([12]; 0.3162 µM): -0.332 GR; GR value ([12]; 1 µM): -0.812 GR
